Results from PubChem BioAssay AID248 (DTP/NCI, 2004).
Several values for one entry are separate records, joined by “and”; a condition that tells them apart may be missing. Equal values may be shown once. Inconclusive results and toxic doses are left out. Rule as the data show it: active = T/C of 150% or more; inactive = T/C below 125%.

Tested on: L1210 leukemia ip in BDF1 mice, survival T/C
Test: NCI In Vivo Anticancer Drug Screen. Data for tumor model L1210 Leukemia (intraperitoneal) in B6D2F1 (BDF1) mice
Details: endpoint: mean survival time, higher = longer survival
Summary of the method: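 Tumor cells were implanted, animals were treated, and survival was followed. The result divides the treated measurement by the vehicle-control measurement.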

[1] = dose: 100.0 mg/kg/injection, schedule: Q04DX003 (ip), vehicle: Klucel (hydroxypropylcellulose) (HPC)
[2] = dose: 200.0 mg/kg/injection, schedule: Q04DX003 (ip), vehicle: Klucel (hydroxypropylcellulose) (HPC)
[3] = dose: 400.0 mg/kg/injection, schedule: Q04DX003 (ip), vehicle: Klucel (hydroxypropylcellulose) (HPC)
[4] = dose: 100.0 mg/kg/injection, schedule: Q01DX009 (ip), vehicle: Klucel (hydroxypropylcellulose) (HPC)
[5] = dose: 200.0 mg/kg/injection, schedule: Q01DX009 (ip), vehicle: Klucel (hydroxypropylcellulose) (HPC)
[6] = dose: 400.0 mg/kg/injection, schedule: Q01DX009 (ip), vehicle: Klucel (hydroxypropylcellulose) (HPC)
[7] = dose: 75.0 mg/kg/injection, schedule: Q01DX001 (ip), vehicle: saline
[8] = dose: 150.0 mg/kg/injection, schedule: Q01DX001 (ip), vehicle: saline
[9] = dose: 300.0 mg/kg/injection, schedule: Q01DX001 (ip), vehicle: saline
[10] = dose: 100.0 mg/kg/injection, schedule: Q04DX003 (ip), vehicle: saline with Tween-80
[11] = dose: 200.0 mg/kg/injection, schedule: Q04DX003 (ip), vehicle: saline with Tween-80
[12] = dose: 100.0 mg/kg/injection, schedule: Q01DX001 (ip), vehicle: Klucel (hydroxypropylcellulose) (HPC)
[13] = dose: 100.0 mg/kg/injection, schedule: Q04DX003 (ip), vehicle: saline
[14] = dose: 200.0 mg/kg/injection, schedule: Q01DX001 (ip), vehicle: Klucel (hydroxypropylcellulose) (HPC)
[15] = dose: 200.0 mg/kg/injection, schedule: Q04DX003 (ip), vehicle: saline
[16] = dose: 400.0 mg/kg/injection, schedule: Q04DX003 (ip), vehicle: saline
[17] = dose: 25.0 mg/kg/injection, schedule: Q01DX009 (ip), vehicle: Klucel (hydroxypropylcellulose) (HPC)
[18] = dose: 50.0 mg/kg/injection, schedule: Q01DX009 (ip), vehicle: Klucel (hydroxypropylcellulose) (HPC)
[19] = dose: 100.0 mg/kg/injection, schedule: Q04DX002 (ip), vehicle: Klucel (hydroxypropylcellulose) (HPC)
[20] = dose: 200.0 mg/kg/injection, schedule: Q04DX002 (ip), vehicle: Klucel (hydroxypropylcellulose) (HPC)
[21] = dose: 400.0 mg/kg/injection, schedule: Q04DX002 (ip), vehicle: Klucel (hydroxypropylcellulose) (HPC)
[22] = dose: 50.0 mg/kg/injection, schedule: Q01DX009 (ip), vehicle: saline with Tween-80
[23] = dose: 100.0 mg/kg/injection, schedule: Q01DX009 (ip), vehicle: saline with Tween-80
[24] = dose: 100.0 mg/kg/injection, schedule: Q01DX009 (ip), vehicle: saline
[25] = dose: 400.0 mg/kg/injection, schedule: Q01DX001 (ip), vehicle: Klucel (hydroxypropylcellulose) (HPC)
[26] = dose: 400.0 mg/kg/injection, schedule: Q04DX003 (ip), vehicle: saline with Tween-80

Measured: T/C

N#CCCCCn1ccc(=O)[nH]c1=O
inactive: dose: 45.0 mg/kg/injection, schedule: Q01DX009 (ip), vehicle: Klucel (hydroxypropylcellulose) (HPC) 92 % of control | dose: 90.0 mg/kg/injection, schedule: Q01DX009 (ip), vehicle: Klucel (hydroxypropylcellulose) (HPC) 104 % of control | [1] 100 % of control | dose: 180.0 mg/kg/injection, schedule: Q01DX009 (ip), vehicle: Klucel (hydroxypropylcellulose) (HPC) 98 % of control | [2] 102 % of control | dose: 360.0 mg/kg/injection, schedule: Q01DX009 (ip), vehicle: Klucel (hydroxypropylcellulose) (HPC) 93 % of control | [3] 96 % of control

COC(=O)C/C(=C\c1ccc(OC)c(OC)c1)C(=O)OC
inactive: [4] 100 % of control | [1] 91 % of control | [5] 94 % of control | [2] 95 % of control | [6] 103 % of control | [3] 96 % of control

Cc1sc2ccc(-c3ccccc3)cc2[n+]1C
inactive: [7] 105 % of control | [8] 102 % of control | [9] 107 % of control

CCC(C)c1ccc(-c2ccc(OC)cc2)cc1 (centres undefined)
inactive: [10] 86 % of control | [11] 86 % of control

Cc1cccc(C)c1NC(=O)NCCCl
inactive: dose: 50.0 mg/kg/injection, schedule: Q01DX001 (ip), vehicle: Klucel (hydroxypropylcellulose) (HPC) 97 % of control | [12] 108 % of control | [13] 105 % of control | [14] 101 % of control | [15] 97 % of control | [16] 100 % of control

CC(C)(C)NC(=O)NCc1ccco1
inactive: dose: 12.5 mg/kg/injection, schedule: Q01DX009 (ip), vehicle: Klucel (hydroxypropylcellulose) (HPC) 98 % of control | [17] 98 % of control | [18] 101 % of control

COc1ccc(C(=O)OCc2ccccc2CN2CCCC2)cc1
inactive: [12] 102 % of control | [14] 98 % of control

CCC(=O)n1cc2ccc([N+](=O)[O-])cc2n1
inactive: [19] 112 % of control | [20] 104 % of control | [21] 101 % of control

CSc1nc(N)c(N=Nc2ccc(S(=O)(=O)Nc3cc(C)nc(C)n3)cc2)c(=O)[nH]1
inactive: dose: 100.0 mg/kg/injection, schedule: Q01DX001 (ip), vehicle: carboxymethylcellulose (CMC) 103 % of control | dose: 200.0 mg/kg/injection, schedule: Q01DX001 (ip), vehicle: carboxymethylcellulose (CMC) 95 % of control | dose: 400.0 mg/kg/injection, schedule: Q01DX001 (ip), vehicle: carboxymethylcellulose (CMC) 97 % of control

COc1ccc2ncc(C)c(CO)c2c1
inactive: dose: 44.0 mg/kg/injection, schedule: Q01DX009 (ip), vehicle: Klucel (hydroxypropylcellulose) (HPC) 96 % of control | dose: 66.0 mg/kg/injection, schedule: Q01DX009 (ip), vehicle: Klucel (hydroxypropylcellulose) (HPC) 98 % of control | dose: 150.0 mg/kg/injection, schedule: Q01DX009 (ip), vehicle: Klucel (hydroxypropylcellulose) (HPC) 101 % of control | [5] 102 % of control | [6] 102 % of control

COc1ccc(/C=N/NC(=O)c2ccc(Cl)cc2Cl)cc1OC
inactive: [22] 103 % of control | [23] 88 % of control | dose: 200.0 mg/kg/injection, schedule: Q01DX009 (ip), vehicle: saline with Tween-80 92 % of control

CCOc1nc(N)nc(-c2ccc(OC)cc2)c1Br
inactive: dose: 100.0 mg/kg/injection, schedule: Q04DX002 (ip), vehicle: saline with Tween-80 94 % of control | dose: 200.0 mg/kg/injection, schedule: Q04DX002 (ip), vehicle: saline with Tween-80 102 % of control | dose: 400.0 mg/kg/injection, schedule: Q04DX002 (ip), vehicle: saline with Tween-80 97 % of control

CCCCCCCCOC(=O)Nc1ccccc1
inactive: [17] 100 % of control | [18] 94 % of control | [4] 100 % of control

CC(C)(N)CNc1ccccc1
inactive: dose: 25.0 mg/kg/injection, schedule: Q01DX009 (ip), vehicle: saline 98 % of control | dose: 25.0 mg/kg/injection, schedule: Q04DX003 (ip), vehicle: saline 97 % of control | dose: 50.0 mg/kg/injection, schedule: Q01DX009 (ip), vehicle: saline 98 % of control | dose: 50.0 mg/kg/injection, schedule: Q04DX003 (ip), vehicle: saline 92 % of control | [24] 100 % of control | [10] 98 % of control | [13] 105 % of control

O=C(O)c1ccc(NCc2cccc([N+](=O)[O-])c2)cc1
inactive: [12] 100 % of control | [4] 96 % of control | [19] 100 % of control and 105 % of control | [1] 99 % of control | [14] 104 % of control | [5] 106 % of control and 86 % of control | [20] 101 % of control and 102 % of control | [2] 108 % of control | [25] 100 % of control | [6] 96 % of control and 98 % of control | [21] 99 % of control and 103 % of control | [3] 98 % of control

O=C(Nc1cccc2c1C(=O)c1cccc(Cl)c1C2=O)c1ccccc1
inactive: [10] 87 % of control | [11] 89 % of control | [26] 86 % of control

COC(=O)CN(c1c(C)cc(C)c(NS(=O)(=O)c2ccccc2)c1C)S(=O)(=O)c1ccccc1
inactive: [12] 92 % of control | [14] 96 % of control | [25] 97 % of control

CC1(C)CC(=O)N(c2ccccc2)N1
inactive: [1] 94 % of control | [2] 103 % of control | [3] 107 % of control

CCOC(=O)c1ccc(S(=O)(=O)NCCCc2c(C)nc(N)[nH]c2=O)cc1
inactive: dose: 12.5 mg/kg/injection, schedule: Q01DX001 (ip), vehicle: saline with Tween-80 90 % of control | dose: 25.0 mg/kg/injection, schedule: Q01DX001 (ip), vehicle: saline with Tween-80 103 % of control | dose: 50.0 mg/kg/injection, schedule: Q01DX001 (ip), vehicle: saline with Tween-80 90 % of control

N/C(=C\C(=O)Cl)C(=O)c1ccccc1
inactive: dose: 100.0 mg/kg/injection, schedule: Q01DX001 (ip), vehicle: saline with Tween-80 106 % of control | dose: 200.0 mg/kg/injection, schedule: Q01DX001 (ip), vehicle: saline with Tween-80 90 % of control | dose: 400.0 mg/kg/injection, schedule: Q01DX001 (ip), vehicle: saline with Tween-80 105 % of control

N#CC1CNCCC1=N (centres undefined)
inactive: [13] 96 % of control | [15] 96 % of control | [16] 100 % of control

CC(=O)C1(C)CC=CCC1C(=O)O (centres undefined)
inactive: [24] 107 % of control | [13] 119 % of control | dose: 200.0 mg/kg/injection, schedule: Q01DX009 (ip), vehicle: saline 116 % of control | [15] 101 % of control | dose: 400.0 mg/kg/injection, schedule: Q01DX009 (ip), vehicle: saline 107 % of control | [16] 106 % of control

CC(C)=CCC/C(C)=C\CCl
inactive: dose: 25.0 mg/kg/injection, schedule: Q01DX009 (ip), vehicle: saline with Tween-80 93 % of control | [22] 106 % of control | [23] 97 % of control and 101 % of control | [10] 104 % of control | [11] 93 % of control | [26] 90 % of control

C1CCC2(CC1)CCCCC2
inactive: dose: 5.0 mg/kg/injection, schedule: Q01DX001 (ip), vehicle: saline 97 % of control | dose: 10.0 mg/kg/injection, schedule: Q01DX001 (ip), vehicle: saline 103 % of control | dose: 20.0 mg/kg/injection, schedule: Q01DX001 (ip), vehicle: saline 93 % of control | dose: 40.0 mg/kg/injection, schedule: Q01DX001 (ip), vehicle: saline 97 % of control | dose: 80.0 mg/kg/injection, schedule: Q01DX001 (ip), vehicle: saline 100 % of control

NC(CSc1ccc([N+](=O)[O-])cc1Cl)C(=O)O (centres undefined)
inactive: [7] 100 % of control | [8] 90 % of control | [9] 92 % of control

CC12C(=O)c3ccccc3C(=O)C1C1CCCCC1=C1CCCCC12 (centres undefined)
inactive: [19] 93 % of control | [20] 93 % of control | [21] 101 % of control
